Assay results as given in a compilation of properties of binary mixtures (doi:10.1021/acs.jpcb.8b06939).

Assay: xn = mol fraction of the nth substance listed
Details: 100 kPa

OC[C@H]1O[C@@H](O[C@H]2[C@H](O)[C@@H](O)C(O)O[C@@H]2CO)[C@H](O)[C@@H](O)[C@@H]1O (stereo partly specified) + CC(=O)[O-].CC[n+]1ccn(C)c1
viscosity [mPa·s]
Details | x1 = 0.005 | x1 = 0.0151 | x1 = 0.0255 | x1 = 0.0524 | x1 = 0.0807
282.5 K | 407 | 517 | 756 | 2299 | –
283.3 K | – | – | – | – | 7397
292.4 K | 185 | 245 | – | 870 | –
293.3 K | – | – | – | – | 2397
303 K | 100 | 123 | 165 | 380 | –
312.5 K | – | – | 97 | 193 | 419
322.6 K | 38 | – | 58 | 111 | –
332.2 K | 28 | 32 | – | 68 | –
341.3 K | – | 23 | – | 47 | –
342.5 K | – | – | 29 | – | 77
352.1 K | 15 | 18 | 21 | 34 | 53
362.3 K | 13 | 14 | 16 | 24 | 38
371.7 K | 11 | 12 | 13 | – | 28
373.1 K | – | – | – | 19 | –

O=C[C@H](O)[C@@H](O)[C@H](O)[C@H](O)CO + CC(=O)[O-].CC[n+]1ccn(C)c1
viscosity [mPa·s]
Details | x1 = 0.0095 | x1 = 0.0284 | x1 = 0.0474 | x1 = 0.095 | x1 = 0.1429
282.5 K | – | – | 756 | 2299 | –
283.3 K | – | – | – | – | 7397
292.4 K | 185 | 245 | 339 | 870 | –
293.3 K | – | – | – | – | 2397
302.1 K | – | – | – | – | 921
303 K | 100 | 123 | 165 | 380 | –
312.5 K | 61 | 73 | 97 | 193 | –
322.6 K | 38 | 45 | 58 | 111 | 207
332.2 K | 28 | 32 | 39 | 68 | –
341.3 K | – | 23 | – | 47 | –
342.5 K | 20 | – | 29 | – | 77
352.1 K | 15 | 18 | 21 | 34 | 53
362.3 K | 13 | 14 | 16 | 24 | 38
371.7 K | 11 | 12 | 13 | – | 28
